In ChEMBL document CHEMBL5154739, “Structure-activity relationships of N-terminal variants of peptidomimetic tissue transglutaminase inhibitors” (Eur J Med Chem, 2022):
pEC50, pKi: −log10 of the molar value.

Experiments:
[1] = molecular target: T1, Protein-glutamine gamma-glutamyltransferase (Homo sapiens) (UniProt P21980); experiment: Inhibition of TG2 (unknown origin) using Cbz-Glu(gamma-p-nitrophenyl ester)Gly (AL5) as substrate assessed as Kinact/Ki ratio and measured by colorimetric assay
T1 sequence (whole entry): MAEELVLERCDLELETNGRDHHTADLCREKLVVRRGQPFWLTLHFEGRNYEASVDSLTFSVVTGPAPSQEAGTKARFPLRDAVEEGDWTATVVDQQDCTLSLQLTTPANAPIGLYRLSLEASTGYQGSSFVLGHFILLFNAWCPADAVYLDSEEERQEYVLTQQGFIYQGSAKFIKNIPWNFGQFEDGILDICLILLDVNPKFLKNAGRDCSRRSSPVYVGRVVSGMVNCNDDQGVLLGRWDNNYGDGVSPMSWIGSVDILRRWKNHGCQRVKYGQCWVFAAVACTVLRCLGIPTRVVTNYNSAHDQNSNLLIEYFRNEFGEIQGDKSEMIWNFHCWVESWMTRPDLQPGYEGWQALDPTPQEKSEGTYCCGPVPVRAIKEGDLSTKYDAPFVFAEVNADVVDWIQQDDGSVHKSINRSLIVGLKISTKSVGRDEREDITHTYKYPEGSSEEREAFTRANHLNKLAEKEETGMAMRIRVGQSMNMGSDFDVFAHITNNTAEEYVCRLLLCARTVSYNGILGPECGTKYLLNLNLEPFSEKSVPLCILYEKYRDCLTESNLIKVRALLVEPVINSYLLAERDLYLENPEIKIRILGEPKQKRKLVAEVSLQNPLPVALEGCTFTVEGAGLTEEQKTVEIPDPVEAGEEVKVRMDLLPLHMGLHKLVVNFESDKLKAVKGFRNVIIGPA

[2] = molecular target: T1, Protein-glutamine gamma-glutamyltransferase (Homo sapiens); experiment: (§1) Inhibition of TG2 (unknown origin) using Cbz-Glu(gamma-p-nitrophenyl ester)Gly (AL5) as substrate and measured by colorimetric assay
[3] = molecular target: T2, Protein-glutamine gamma-glutamyltransferase (Homo sapiens, UniProt P21980); experiment: as §1
T2 sequence (P21980 whole entry): T1 sequence (whole entry)

[4] = Anti-invasion activity against human SCC-13 cells assessed as inhibition of invasion incubated for 18 hrs by matrigel trans well plate assay; format: functional, cell-based; details: SCC-13, 18 h
MDR1 (P-gp) [5] = experiment: Apparent permeability from basolateral to apical side in dog MDCK-MDR1 cells; format: ADME, cell-based, Canis lupus familiaris
MDR1 (P-gp) [6] = experiment: Efflux ratio of apparent permeability in dog MDCK-MDR1 cells; format: ADME, cell-based, Canis lupus familiaris
[7] = Plasma protein binding (unknown origin) assessed as drug recovery; format: ADME, cell-free; details: read-out: Drug recovery
MDR1 (P-gp) [8] = experiment: Apparent permeability from apical to basolateral side in dog MDCK-MDR1 cells; format: ADME, cell-based, Canis lupus familiaris
[9] = Plasma protein binding (unknown origin); format: ADME, cell-free; details: read-out: PPB (converted)
P-gp [10] = experiment: Substrate activity at P-gp in dog MDCK cells assessed as apparent permeability across basolateral to apical membrane; format: ADME, cell-based, Canis lupus familiaris; details: MDCK-MDR1
P-gp [11] = experiment: Substrate activity at P-gp in dog MDCK cells assessed as apparent permeability across apical to basolateral membrane; format: ADME, cell-based, Canis lupus familiaris; details: MDCK-MDR1
[12] = Half-life in plasma (unknown origin); format: ADME, cell-free
P-gp [13] = experiment: Substrate activity at P-gp in dog MDCK cells assessed as efflux ratio; format: ADME, cell-based, Canis lupus familiaris; details: MDCK-MDR1

Ratio [1]	Kinact [2] [min⁻¹]	also measured	SMILES
66.7 10^3/M/min	0.64		C=CC(=O)NCCCC[C@H](NC(=O)CC(C)C)C(=O)N1CCN(C(=O)c2cccc3ccccc23)CC1
16 10^3/M/min	0.46	pKi [3]: 4.54	C=CC(=O)NCCCC[C@H](NC(=O)c1cn(C)cn1)C(=O)N1CCN(C(=O)c2cccc3ccccc23)CC1
14 10^3/M/min	0.41	pEC50 [4]: 4.70; pKi [3]: 4.54	C=CC(=O)NCCCC[C@H](NC(=O)OCc1ccccc1)C(=O)NCCOCCOCCNS(=O)(=O)c1cccc2c(N(C)C)cccc12
20.9 10^3/M/min	0.26		C=CC(=O)NCCCC[C@H](NC(=O)CC1CCCCC1)C(=O)N1CCN(C(=O)c2cccc3ccccc23)CC1
100 10^3/M/min	0.38	pEC50 [4]: 5.41; pKi [3]: 5.42	C=CC(=O)NCCCC[C@H](NC(=O)OCc1ccccc1)C(=O)N1CCN(S(=O)(=O)c2cccc3c(N(C)C)cccc23)CC1
7.1 10^3/M/min	0.63		C=CC(=O)NCCCC[C@H](NS(=O)(=O)c1ccccc1)C(=O)N1CCN(C(=O)c2cccc3ccccc23)CC1
352 10^3/M/min	2.1	Papp B→A (MDR1 (P-gp) [5]): 16.5 ×10⁻⁶ cm/s; efflux ratio (MDR1 (P-gp) [6]): 51.6; recovery [7]: 93%; Papp A→B (MDR1 (P-gp) [8]): 0.32 ×10⁻⁶ cm/s; fraction unbound [9]: 0.15; Papp B→A (P-gp [10]): 3 ×10⁻⁶ cm/s; Papp A→B (P-gp [11]): 3.2 ×10⁻⁶ cm/s; half-life [12]: 9.47 h; efflux ratio (P-gp [13]): 0.93	C=CC(=O)NCCCC[C@H](NC(=O)Cc1ccccc1C)C(=O)N1CCN(C(=O)c2cccc3ccccc23)CC1
391 10^3/M/min			C=CC(=O)NCCCC[C@H](NC(=O)Cc1ccccc1)C(=O)N1CCN(c2cccnc2)CC1
36.5 10^3/M/min	0.29		C=CC(=O)NCCCC[C@H](NC(=O)c1ccc2ccccc2c1)C(=O)N1CCN(C(=O)c2cccc3ccccc23)CC1
65.1 10^3/M/min	0.65		C=CC(=O)NCCCC[C@H](NC(=O)C(C)C)C(=O)N1CCN(C(=O)c2cccc3ccccc23)CC1
290 10^3/M/min	0.3		C=CC(=O)NCCCC[C@H](NC(=O)Cc1cccc(Cl)c1)C(=O)N1CCN(C(=O)c2cccc3ccccc23)CC1
55.4 10^3/M/min	0.9		C=CC(=O)NCCCC[C@H](NC(=O)c1ccc(F)cc1)C(=O)N1CCN(C(=O)c2cccc3ccccc23)CC1
100 10^3/M/min	1		C=CC(=O)NCCCC[C@H](NC(=O)Cc1ccccc1C(F)(F)F)C(=O)N1CCN(C(=O)c2cccc3ccccc23)CC1
214 10^3/M/min	0.6		C=CC(=O)NCCCC[C@H](NC(=O)CCc1ccccc1)C(=O)N1CCN(C(=O)c2cccc3ccccc23)CC1
47.8 10^3/M/min	0.64		C=CC(=O)NCCCC[C@H](NC(=O)c1cccc(F)c1)C(=O)N1CCN(C(=O)c2cccc3ccccc23)CC1
96.6 10^3/M/min	1.02		C=CC(=O)NCCCC[C@H](NC(=O)C1CC1)C(=O)N1CCN(C(=O)c2cccc3ccccc23)CC1
	0.387	pKi [3]: 5.88	C=CC(=O)NCC(=O)N1CCN(S(=O)(=O)c2cccc3c(N(C)C)cccc23)CC1
310 10^3/M/min	3.1	pEC50 [4]: 4.03	C=CC(=O)NCCCC[C@H](NC(=O)Cc1ccccc1Br)C(=O)N1CCN(C(=O)c2cccc3ccccc23)CC1
9.6 10^3/M/min	0.39		C=CC(=O)NCCCC[C@H](NC(=O)c1ccccn1)C(=O)N1CCN(C(=O)c2cccc3ccccc23)CC1
119 10^3/M/min	0.49		C=CC(=O)NCCCC[C@H](NC(=O)Cc1ccc(F)cc1)C(=O)N1CCN(C(=O)c2cccc3ccccc23)CC1
44.1 10^3/M/min	1.45		C=CC(=O)NCCCC[C@H](NC(C)=O)C(=O)N1CCN(C(=O)c2cccc3ccccc23)CC1
20.1 10^3/M/min	0.41		C=CC(=O)NCCCC[C@H](NC(=O)c1cccc2ccccc12)C(=O)N1CCN(C(=O)c2cccc3ccccc23)CC1

Ratio [1]	Kinact [2] [min⁻¹]	also measured	SMILES
39.4 10^3/M/min	0.39		C=CC(=O)NCCCC[C@H](NC(=O)c1ccccc1F)C(=O)N1CCN(C(=O)c2cccc3ccccc23)CC1
39.6 10^3/M/min	0.21		C=CC(=O)NCCCC[C@H](NC(=O)CCCc1ccccc1)C(=O)N1CCN(C(=O)c2cccc3ccccc23)CC1
12.7 10^3/M/min	0.24		C=CC(=O)NCCCC[C@H](NC(=O)c1ccncc1)C(=O)N1CCN(C(=O)c2cccc3ccccc23)CC1
11.4 10^3/M/min	0.53		C=CC(=O)NCCCC[C@H](NS(=O)(=O)Cc1ccccc1)C(=O)N1CCN(C(=O)c2cccc3ccccc23)CC1
131 10^3/M/min	0.08		C=CC(=O)NCCCC[C@H](NC(=O)Cc1ccc(Cl)c(Cl)c1)C(=O)N1CCN(C(=O)c2cccc3ccccc23)CC1
155 10^3/M/min	0.75		C=CC(=O)NCCCC[C@H](NC(=O)Cc1cccc(F)c1)C(=O)N1CCN(C(=O)c2cccc3ccccc23)CC1
508 10^3/M/min			C=CC(=O)NCCCC[C@H](NC(=O)Cc1ccccc1)C(=O)N1CCN(c2ccc([N+](=O)[O-])nc2)CC1
299 10^3/M/min	1.4		C=CC(=O)NCCCC[C@H](NC(=O)Cc1ccccc1OC)C(=O)N1CCN(C(=O)c2cccc3ccccc23)CC1
11.5 10^3/M/min	0.18		C=CC(=O)NCCCC[C@H](NC(=O)c1nccn1C)C(=O)N1CCN(C(=O)c2cccc3ccccc23)CC1
244 10^3/M/min	1.2	pKi [3]: 5.32	C=CC(=O)NCCCC[C@H](NC(=O)OCc1ccccc1)C(=O)N1CCN(C(=O)c2cccc3ccccc23)CC1
22.6 10^3/M/min	0.57	pKi [3]: 3.60	C=CC(=O)NCCCC[C@H](NS(C)(=O)=O)C(=O)N1CCN(C(=O)c2cccc3ccccc23)CC1
31.1 10^3/M/min	0.83		C=CC(=O)NCCCC[C@H](NS(=O)(=O)CC)C(=O)N1CCN(C(=O)c2cccc3ccccc23)CC1
295 10^3/M/min	5.3	pEC50 [4]: 4.04	C=CC(=O)NCCCC[C@H](NC(=O)Cc1ccccc1Cl)C(=O)N1CCN(C(=O)c2cccc3ccccc23)CC1
170 10^3/M/min	0.46		C=CC(=O)NCCCC[C@H](NC(=O)Cc1cccc(Cl)c1Cl)C(=O)N1CCN(C(=O)c2cccc3ccccc23)CC1
103 10^3/M/min	0.53		C=CC(=O)NCCCC[C@H](NC(=O)CC)C(=O)N1CCN(C(=O)c2cccc3ccccc23)CC1
56.2 10^3/M/min	0.49		C=CC(=O)NCCCC[C@H](NC(=O)C(C)(C)C)C(=O)N1CCN(C(=O)c2cccc3ccccc23)CC1
33.6 10^3/M/min	0.33		C=CC(=O)NCCCC[C@H](NC(=O)C1CCCCC1)C(=O)N1CCN(C(=O)c2cccc3ccccc23)CC1
23.3 10^3/M/min	0.59		C=CC(=O)NCCCC[C@H](NC(=O)c1cccnc1)C(=O)N1CCN(C(=O)c2cccc3ccccc23)CC1
224 10^3/M/min	0.62		C=CC(=O)NCCCC[C@H](NC(=O)Cc1ccc(F)cc1F)C(=O)N1CCN(C(=O)c2cccc3ccccc23)CC1
12.6 10^3/M/min	0.28	pKi [3]: 4.65	C=CC(=O)NCCCC[C@H](NC(=O)c1cncn1C)C(=O)N1CCN(C(=O)c2cccc3ccccc23)CC1
14.9 10^3/M/min	0.23		C=CC(=O)NCCCC[C@H](NC(=O)C1C2CC3CC(C2)CC1C3)C(=O)N1CCN(C(=O)c2cccc3ccccc23)CC1 (stereo partly drawn)
